Data on six compounds can be found in patent US10583146B2, “Pharmaceutical compositions for glucocorticoid replacement therapy” (Shire ViroPharma Incorporated, priority 2004, dated 2020).

The conditions of data set [1]: equivalent dose for systemic glucocorticoid therapy; cited from earlier work.
Data set [2] can be described thus: Equivalent doses of glucocorticoids (hydrocortisone equivalents) for systemic glucocorticoid therapy. The following applies: per 1 mg of the glucocorticoid. The method, then: The term “hydrocortisone equivalents” is used herein to define the amount in mg of a specific glucocorticoid that corresponds to 1 mg of hydrocortisone for the purpose of systemic glucocorticoid therapy as generally understood by medical practitioners. The term is based on the fact that the individual glucocorticoids have different potencies and in order to achieve a desired therapeutic effect different doses of the individual glucocorticoids are required. Equivalent doses of the glucocorticoids can be calculated based on the following table.

A short description of data set [3]: In vivo plasma cortisol profile in healthy volunteers with suppressed endogenous glucocorticoid secretion. On the set-up: species or system human. The method, then: The in vivo experiments reported herein were carried out on healthy volunteers. At 6 pm and 11 pm the day before administration of the test composition, the endogenous cortisol secretion was suppressed by oral administration of 2 mg of betamethasone.
The test composition was administered to healthy volunteers. The volunteers were in fasted state and were not allowed to take any food until noon. In the case a tablet is administered, it is ingested together with 200 ml of water. The test composition is administered between 8 am and 10 am on the day following the suppression of endogenous glucocorticoid secretion.
In vivo plasma profiles in humans, N=1 per composition
Dexamethasone suppression test, fasting state, otherwise as described in the paragraph denoted “Method”.
Two films were prepared essentially similar to Example 20—composition A. Film A contains 10 mg of hydrocortisone and film B contains 11.2 mg of hydrocortisone acetate.
The hydrocortisone compositions were tested in two human subjects after labial administration. The subjects had their endogenous glucocorticoid secretion suppressed by synthetic glucocorticoids. The plasma concentration of cortisol was monitored during 360 min after the labial administration, and the serum concentration time profiles from these two different subjects are shown in FIGS. 10 and 11.
The compositions were tested after oral administration to two human subjects (FIG. 12).

Take `CC(=O)OCC(=O)[C@@]1(O)CC[C@H]2[C@@H]3CCC4=CC(=O)CC[C@]4(C)[C@H]3C(=O)C[C@@]21C` [Cortisone acetate]: the “Equivalent amount” value in data set [1] is listed as 25 mg. In data set [2], the “Hydrocortisone equivalent (1 mg of the glucocorticoid corresponds to the listed amount in mg of hydrocortisone)” value (“Hydrocortisone equivalent” below) was 0.8 mg.
Take `C[C@]12CCC(=O)C=C1CC[C@@H]1[C@@H]2[C@@H](O)C[C@@]2(C)[C@H]1CC[C@]2(O)C(=O)CO` [Hydrocortisone]: in data set [3] (Example 20 thin-layer film, 10 mg hydrocortisone, labial administration, two human subjects, FIGS. 10 and 11), the “time at which the first measured plasma concentration of cortisol was attained” value was in the range of 10 to 15 min. Besides, the “rate and extent of mucosal uptake” value in data set [3] (Example 20 thin-layer film, labial administration, two human subjects) is “high”. Further, in data set [1], the “Equivalent amount” value was 20 mg. Further, the “Hydrocortisone equivalent” value in data set [2] is on record as 1 mg.
As to `C[C@@H]1C[C@H]2[C@@H]3C[C@H](F)C4=CC(=O)C=C[C@]4(C)[C@H]3[C@@H](O)C[C@]2(C)[C@@]1(O)C(=O)CO` [Paramethasone], the “Equivalent amount” value in data set [1] is 2 mg. Also, in data set [2], the “Hydrocortisone equivalent” value was 10 mg.
With `C[C@]12C=CC(=O)C=C1CC[C@@H]1[C@@H]2[C@@H](O)C[C@@]2(C)[C@H]1CC[C@]2(O)C(=O)CO` [Prednisolone], in data set [1], the “Equivalent amount” value is listed as 5 mg. Besides, the “Hydrocortisone equivalent” value in data set [2] was 4 mg.
Consider `C[C@]12C=CC(=O)C=C1CC[C@H]1[C@@H]3C[C@@H](O)[C@](O)(C(=O)CO)[C@@]3(C)C[C@H](O)[C@@]12F` [Triamcinolone], for which the “Equivalent amount” value in data set [1] was 4 mg. Besides, the “Hydrocortisone equivalent” value in data set [2] was found to be 5 mg.
As to `CC(=O)OCC(=O)[C@@]1(O)CC[C@H]2[C@@H]3CCC4=CC(=O)CC[C@]4(C)[C@H]3[C@@H](O)C[C@@]21C` [hydrocortisone acetate], the “suitability for immediate release judged from in vivo plasma profiles” value in data set [3] (Example 18 thin-layer films, humans, N=1 per composition, fasting state, FIGS. 5-7) is recorded as “does not seem to be suitable for an immediate release composition”.
